Results from patent US9062004B2, “Cannabinoid-2 agonists” (Allergan, Inc., priority 2010, dated 2015).
Read-outs that look alike come from different tables or passages of the source.

What was measured:
[1] = target: human CB1 cannabinoid receptor (Homo sapiens (Human), UniProt P21554); experiment: Radioligand binding assay, CB1 ([3H]-CP 55,940 competition); conditions: plasma membranes of HEK 293 EBNA cells transfected with human CB1; 0.72 nM [3H]-CP 55,940; NA = not active
Procedure: (§1) A. Radioligand Binding Assay
(§2) Plasma membranes prepared from HEK 293 EBNA cells transfected with human CB1 or CB2 cannabinoid receptors ([…] protein, receptor concentration; PerkinElmer) were used for the radioligand binding studies. The composition of incubation buffer for CB1 assay was 50 mM Tris base, 2.5 mM EDTA, 5 mM MgCl2 and 0.5 mg/ml fatty acid free BSA and for CB2 assay was 50 mM Tris base, 2.5 mM EGTA, 5 mM MgCl2 and 1 mg/ml fatty acid free BSA; pH was adjusted to 7.4 by adding 1N HCl. Plasma membranes were diluted with incubation buffer to provide a final protein concentration of 2.4 μg (CB1) or 8 μg (CB2) per well in non-binding surface polystyrene 96-well assay plates (Corning). Compound solutions were prepared in silanized glass tubes and dispensed using pipette tips with SUPERSLIK™ surface. Competition studies were performed using a final concentration of 0.72 nM [^3H]-CP 55,940 (100-180 Ci/mmol, specific activity; PerkinElmer) against test compounds. Non-specific binding was determined using 10 uM of unlabeled CP 55,940. Incubations were performed in 96-well assay plates at a final volume of 200 ul for 90 min (CB1) or 60 min (CB2) at room temperature. Binding reactions were terminated by the addition of ice-cold incubation buffer and rapid filtration through a glass fiber filter using a cell harvester (Inotech). This was followed by 8 additional washes. The glass fiber filter (0.26 mm thickness, 1-1.5 um retention; Inotech) was presoaked in cold incubation buffer containing 0.05% polyethylenimine. The filters were oven-dried at 50° C. for 60 min and counting performed using a Beckman Coulter LS 6500 Multi-Purpose Scintillation Counter (Beckman-Coulter). Binding was determined in duplicate for at least 4 separate experiments.

[2] = target: human CB2 cannabinoid receptor (Homo sapiens (Human), UniProt P34972); experiment: Radioligand binding assay, CB2 ([3H]-CP 55,940 competition); conditions: for CB2 Selectivity: CB2 versus CB1 binding (ratio of CB1 IC50 to CB2 IC50); for IC50: plasma membranes of HEK 293 EBNA cells transfected with human CB2, 0.72 nM [3H]-CP 55,940, NA = not active
Procedure: as §1, §2

[3] = tested on: mouse isolated vas deferens; experiment: Mouse isolated vas deferens (MVD) bioassay, electrically stimulated contractions; type: cell-based; conditions: for EC50: Mus musculus
[4] = vas deferens of male Swiss Webster mice, electrically evoked contractions, NA = not active, read-out: MVD Assay EC50
[5] = vas deferens of male Swiss Webster mice, electrically evoked contractions, NA = not active

Chain of human CB2 cannabinoid receptor (P34972 whole entry): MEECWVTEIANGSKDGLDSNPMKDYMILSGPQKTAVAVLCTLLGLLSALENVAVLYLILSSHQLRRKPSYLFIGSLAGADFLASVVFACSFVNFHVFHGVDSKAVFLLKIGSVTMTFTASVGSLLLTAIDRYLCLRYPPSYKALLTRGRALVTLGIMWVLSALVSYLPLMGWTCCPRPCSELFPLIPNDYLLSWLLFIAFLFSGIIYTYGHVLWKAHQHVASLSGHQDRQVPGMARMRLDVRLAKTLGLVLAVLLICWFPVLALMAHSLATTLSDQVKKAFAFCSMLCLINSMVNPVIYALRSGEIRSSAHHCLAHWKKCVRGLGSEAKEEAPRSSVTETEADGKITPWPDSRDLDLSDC
Chain of human CB1 cannabinoid receptor (P21554 whole entry): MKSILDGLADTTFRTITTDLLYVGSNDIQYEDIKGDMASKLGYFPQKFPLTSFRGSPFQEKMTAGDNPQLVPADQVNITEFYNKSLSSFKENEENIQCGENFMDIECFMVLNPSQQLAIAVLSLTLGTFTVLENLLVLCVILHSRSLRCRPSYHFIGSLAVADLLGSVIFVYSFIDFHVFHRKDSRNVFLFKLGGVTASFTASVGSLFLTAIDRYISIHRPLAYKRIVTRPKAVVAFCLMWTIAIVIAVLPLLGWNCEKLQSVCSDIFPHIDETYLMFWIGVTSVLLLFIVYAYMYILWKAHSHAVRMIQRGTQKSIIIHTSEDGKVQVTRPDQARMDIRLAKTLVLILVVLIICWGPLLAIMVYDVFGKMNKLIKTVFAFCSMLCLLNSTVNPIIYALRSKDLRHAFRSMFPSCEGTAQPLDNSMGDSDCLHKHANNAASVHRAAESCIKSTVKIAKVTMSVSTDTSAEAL

IC50 [1] [µM] | CB2 Selectivity [2] | IC50 [2] [nM] | EC50 [3, 4] [nM] | SMILES | EC50 ([3]; read-out: MVD Assay EC50 (nM)) [nM] | MVD assay qualitative outcome [3, 5]
7.41 | 177 | 42 | 820 | CN(C)CCNc1cnn(C2CC(C)(C)CC(C)(C)C2)c(=O)c1Br [Compound 14, 4-Bromo-5-(2-dimethylaminoethylamino)-2-(3,3,5,5-tetramethyl-cyclohexyl)pyridazin-3-one] |  | 
> 10 | >26 | 380 | 2500 | CN(C)c1cnn(C2CC(C)(C)CC(C)(C)C2)c(=O)c1 [Compound 7, 5-Dimethylamino-2-(3,3,5,5-tetramethylcyclohexyl)pyridazin-3-one] |  | 
0.219 | 26 | 8.5 | 33 | CC1(C)CC(n2ncc3c(cnn3CCN3CCOCC3)c2=O)CC(C)(C)C1 [Compound 36, 1-(2-Morpholin-4-ylethyl)-5-(3,3,5,5-tetramethylcyclohexyl)pyrazolo[3,4-d]pyridazin-4-one] |  | 
 |  | 2040 | 2900 | CN(C)CCn1cc2c(=O)n(C3CC(C)(C)CC(C)(C)C3)ncc2n1 [Compound 39, 2-(2-Dimethylaminoethyl)-5-(3,3,5,5-tetramethylcyclohexyl)pyrazolo[3,4-d]pyridazin-4-one] |  | 
 |  | > 10000 |  | O=c1c(Cl)c(NCCN2CCOCC2)cnn1-c1cc(Cl)cc(Cl)c1 [Compound 28, 4-Chloro-2-(3,5-dichlorophenyl)-5-(2-morpholin-4-ylethylamino)-pyridazin-3-one] |  | Increase
1.86 | 83 | 22.4 | 86 | CC1(C)CC(n2ncc(NCCN3CCOCC3)c(Br)c2=O)CC(C)(C)C1 [Compound 15, 4-Bromo-5-(2-morpholin-4-ylethylamino)-2-(3,3,5,5-tetramethyl-cyclohexyl)pyridazin-3-one] |  | 
 |  |  | > 10000 | CCCNc1cnn(CC(C)(C)C)c(=O)c1Cl [Compound 33, 4-Chloro-2-(2,2-dimethylpropyl)-5-propylaminopyridazin-3-one] |  | 
> 10 |  | > 10000 | ~10000 | Cc1cc(C)cc(-n2ncc(NCCN3CCOCC3)c(Cl)c2=O)c1 [Compound 18, 4-Chloro-2-(3,5-dimethylphenyl)-5-(2-morpholin-4-ylethylamino)-pyridazin-3-one] |  | 
 |  | > 10000 | > 10000 | CCCNc1cnn(-c2ccccc2)c(=O)c1Cl [Compound 9, 4-Chloro-2-phenyl-5-propylamino-pyridazin-3-one] |  | 
3.98 | 48 | 83 | 320 | CC1(C)CC(n2ncc(NCCN3CCOCC3)c(Cl)c2=O)CC(C)(C)C1 [Compound 11, 4-Chloro-5-(2-morpholin-4-ylethyl-amino)-2-(3,3,5,5-tetramethyl-cyclohexyl)pyridazin-3-one] |  | 
2.63 | 132 | 20 | 330 | CN(C)CCN(C)c1cnn(C2CC(C)(C)CC(C)(C)C2)c(=O)c1Cl [Compound 31, 4-Chloro-5-(2-dimethylaminoethylmethylamino)-2-(3,3,5,5-tetramethyl-cyclohexyl)pyridazin-3-one] |  | 
3.98 | 38 | 105 | 130 | CN(C)CCn1ncc2c(=O)n(C3CC(C)(C)CC(C)(C)C3)ncc21 [Compound 38, 1-(2-Dimethylaminoethyl)-5-(3,3,5,5-tetramethylcyclohexyl)pyrazolo[3,4-d]pyridazin-4-one] |  | 
 |  |  |  | CN(C)CCNc1cnn(-c2cc(C(F)(F)F)cc(C(F)(F)F)c2)c(=O)c1Cl [Compound 23, 2-(3,5-Bistrifluoromethylphenyl)-4-chloro-5-(2-dimethylaminoethylamino)pyridazin-3-one] |  | Increase
1.02 | 189 | 5.4 | 30 | CCCNc1cnn(C2CC(C)(C)CC(C)(C)C2)c(=O)c1Cl [Compound 5, 4-Chloro-5-propylamino--2-(3,3,5,5-tetramethylcyclohexyl)pyridazin-3-one] |  | 
 |  | > 10000 | > 10000 | Cc1ccc(C)c(-n2ncc(NCCN3CCOCC3)c(Cl)c2=O)c1 [Compound 29, 4-Chloro-2-(2,5-dimethylphenyl)-5-(2-morpholin-4-ylethylamino)-pyridazin-3-one] |  | 
 |  | 1820 | 3700 | CC1(C)CC(n2ncc(O)cc2=O)CC(C)(C)C1 [Compound 1, 5-hydroxy-2-(3,3,5,5-tetramethyl-cyclohexyl)pyridazin-3-one] |  | 
 |  | 10000 | > 10000 | CCCNc1cnn(C2CCCCC2)c(=O)c1Cl [Compound 10, 4-Chloro-2-cyclohexyl-5-propylaminopyridazin-3-one] |  | 
 |  | 10000 | > 10000 | CCCNc1cnn(-c2cc(C)ccc2C)c(=O)c1Cl [Compound 26, 4-Chloro-2-(2,5-dimethylphenyl)-5-propylaminopyridazin-3-one] |  | 
 |  | > 10000 | > 10000 | CCCNc1cnn(Cc2ccccc2)c(=O)c1Cl [Compound 30, 2-Benzyl-4-chloro-5-propylaminopyridazin-3-one] |  | 
 |  | > 10000 | > 10000 | O=c1c(Cl)c(NCCN2CCOCC2)cnn1-c1cc(C(F)(F)F)cc(C(F)(F)F)c1 [Compound 22, 2-(3,5-Bistrifluoromethylphenyl)-4-chloro-5-(2-morpholin-4-ylethyl-amino)pyridazin-3-one] |  | 

SMILES | IC50 [1] [µM] | CB2 Selectivity [2] | IC50 [2] [nM] | EC50 [3, 4] [nM] | EC50 ([3]; read-out: MVD Assay EC50 (nM)) [nM] | MVD assay qualitative outcome [3, 5]
CCCn1cc2c(=O)n(C3CC(C)(C)CC(C)(C)C3)ncc2n1 [Compound 35, 2-Propyl-5-(3,3,5,5-tetramethylcyclohexyl)pyrazolo[3,4-d]pyridazin-4-one] | > 10 | >42 | 240 |  | 1200 | 
CCCNc1cnn(-c2cc(C(F)(F)F)cc(C(F)(F)F)c2)c(=O)c1Cl [Compound 20, 2-(3,5-Bistrifluoromethylphenyl)-4-chloro-5-propylamino-pyridazin-3-one] | > 10 |  | > 10000 | > 10000 |  | 
CCCNc1cnn(-c2cc(C)cc(C)c2)c(=O)c1Cl [Compound 16, 4-Chloro-2-(3,5-dimethylphenyl)-5-propylaminopyridazin-3-one] | > 10 |  | 10000 | > 10000 |  | 
CCN(CC)CCNc1cnn(C2CC(C)(C)CC(C)(C)C2)c(=O)c1Cl [Compound 32, 4-Chloro-5-(2-diethylaminoethylamino)-2-(3,3,5,5-tetramethyl-cyclohexyl)pyridazin-3-one] |  |  | 1290 | 10000 |  | 
CCCNc1cnn(C(C)(C)C)c(=O)c1Cl [Compound 24, 2-t-Butyl-4-chloro-5-propylamino-pyridazin-3-one] |  |  | > 10000 | > 10000 |  | 
CC(C)(C)n1ncc(NCCN2CCOCC2)c(Cl)c1=O [Compound 27, 2-t-Butyl-4-chloro-5-(2-morpholin-4-ylethylamino)-pyridazin-3-one] |  |  | > 10000 | > 10000 |  | 
CCCn1ncc2c(=O)n(C3CC(C)(C)CC(C)(C)C3)ncc21 [Compound 34, 1-Propyl-5-(3,3,5,5-tetramethyl-cyclohexyl)pyrazolo[3,4-d]pyridazin-4-one] | 0.257 | 15 | 17 |  | 21 | 
CCCNc1cnn(C2CC(C)(C)CC(C)(C)C2)c(=O)c1 [Compound 8, 5-Propylamino-2-(3,3,5,5-tetramethyl-cyclohexyl)pyridazin-3-one] | > 10 | >147 | 68 | 440 |  | 
CCCNc1cnn(-c2cc(Cl)cc(Cl)c2)c(=O)c1Cl [Compound 25, 4-Chloro-2-(3,5-dichlorophenyl)-5-propylaminopyridazin-3-one] | > 10 |  | > 10000 | > 10000 |  | 
CNc1cnn(C2CC(C)(C)CC(C)(C)C2)c(=O)c1 [Compound 6, 5-Methylamino-2-(3,3,5,5-tetramethyl-cyclohexyl)pyridazin-3-one] | > 10 | >5 | 2090 | 10000 |  | 
CN(C)c1cnn(-c2cc(C(F)(F)F)cc(C(F)(F)F)c2)c(=O)c1Cl [Compound 21, 2-(3,5-Bistrifluoromethylphenyl)-4-chloro-5-dimethylaminopyridazin-3-one] |  |  | > 10000 | > 10000 |  | 
Cc1cc(C)cc(-n2ncc(N(C)C)c(Cl)c2=O)c1 [Compound 17, 4-Chloro-5-dimethylamino-2-(3,5-dimethylphenyl)-pyridazin-3-one] |  |  | > 10000 |  |  | 
